Laboratory results as given in publication PMC7114193 (Antiviral Research, 2012).

Legend:
rhACE2 = rhACE2 (Homo sapiens, UniProt Q9BYF1); type: binding
[1] = test system: spike protein and ACE2 interaction; details: cited from earlier work

rhACE2, sequence (Q9BYF1 18-740): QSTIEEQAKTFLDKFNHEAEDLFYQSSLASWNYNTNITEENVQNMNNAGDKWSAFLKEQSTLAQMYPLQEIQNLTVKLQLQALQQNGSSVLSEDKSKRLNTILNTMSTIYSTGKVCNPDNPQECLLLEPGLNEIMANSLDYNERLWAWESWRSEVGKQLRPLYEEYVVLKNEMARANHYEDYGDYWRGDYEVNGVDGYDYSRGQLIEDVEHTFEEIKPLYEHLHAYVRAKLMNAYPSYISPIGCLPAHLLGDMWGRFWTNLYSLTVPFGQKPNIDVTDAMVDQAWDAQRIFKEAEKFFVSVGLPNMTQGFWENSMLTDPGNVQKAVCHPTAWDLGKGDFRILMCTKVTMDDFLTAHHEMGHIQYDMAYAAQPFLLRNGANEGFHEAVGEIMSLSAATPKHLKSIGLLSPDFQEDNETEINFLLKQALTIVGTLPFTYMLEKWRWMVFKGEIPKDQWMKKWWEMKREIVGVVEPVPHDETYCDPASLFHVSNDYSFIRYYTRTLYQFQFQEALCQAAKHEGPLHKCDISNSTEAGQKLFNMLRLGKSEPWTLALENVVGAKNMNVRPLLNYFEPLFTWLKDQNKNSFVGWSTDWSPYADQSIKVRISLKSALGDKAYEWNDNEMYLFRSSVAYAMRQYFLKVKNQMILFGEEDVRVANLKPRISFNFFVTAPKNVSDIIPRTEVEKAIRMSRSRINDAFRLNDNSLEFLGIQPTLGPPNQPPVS

Row | Substance | SPR binding to ACE2 (in words) (rhACE2) | also measured
1 | ALNSYW [RBD-14a] |  | SPR response (rhACE2): 5 RU
2 | FYTTTGIGYQPY [SP-8] |  | inhibition of spike protein and ACE2 interaction (in words) [1]: inhibitory activity
3 | IGYQPY [RBD-15c] | no interaction observable | 
4 | NYNYKY [RBD-11a] |  | SPR response signal (rhACE2): 5 RU
5 | SYWPLN [RBD-14b] | only weak interaction | SPR response (rhACE2): 7 RU
6 | YDYRYL | No binding was observed | 
7 | YKYDYL | No binding was observed | 
